Consider one molecule from publication PMC5034864 (Molecular microbiology, 2012).

Common to all, as to experiment: FRET of YPet-PilZ-CyPet fusion protein, titration
Holding throughout (type): binding

The target of experiment [1] is YcgR (STM1798) (Salmonella enterica, UniProt Q8ZP19).
The target of experiment [2] is PA4324 (Pseudomonas aeruginosa, UniProt Q9HW77).
Experiment [3] addresses BcsA (STM3619) PilZ domain (Salmonella enterica, UniProt Q93IN2).
For experiment [4], the target named is PA3353 (Pseudomonas aeruginosa, UniProt Q9HYP3).

Chain of YcgR (STM1798) (Q8ZP19 whole entry): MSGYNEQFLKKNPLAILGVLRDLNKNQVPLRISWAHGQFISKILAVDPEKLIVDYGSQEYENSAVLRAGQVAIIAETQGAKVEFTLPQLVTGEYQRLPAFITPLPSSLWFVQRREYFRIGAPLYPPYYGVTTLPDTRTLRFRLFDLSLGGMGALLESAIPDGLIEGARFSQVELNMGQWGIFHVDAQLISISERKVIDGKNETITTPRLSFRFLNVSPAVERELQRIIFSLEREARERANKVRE
Chain of BcsA (STM3619) PilZ domain (Q93IN2 691-791): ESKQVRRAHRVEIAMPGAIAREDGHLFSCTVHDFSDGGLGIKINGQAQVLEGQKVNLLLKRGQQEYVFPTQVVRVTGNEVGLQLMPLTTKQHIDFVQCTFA

As a reminder, the Kd is the concentration at which binding is half-saturated. Take `Nc1nc2c(ncn2[C@@H]2O[C@@H]3CO[P@](=O)(O)O[C@H]4[C@@H](O)[C@H](n5cnc6c(=O)[nH]c(N)nc65)O[C@@H]4CO[P@](=O)(O)O[C@H]3[C@H]2O)c(=O)[nH]1` [c-di-GMP]: the Kd in experiment [1] amounted to 191 ± 18 nM; in experiment [2] it was 735 ± 474 nM; in experiment [3], 8240 ± 238 nM; in experiment [4], 88 ± 17 nM.
